Assay results taken from the NIST ThermoML archive (doi:10.1016/j.jct.2012.03.014).

Test: cn = amount concentration of the nth substance listed, in mol/dm3
Conditions: 298.15 K, 101 kPa, Liquid, Taylor dispersion method

CC(=O)Nc1ccc(O)cc1 [N-acetyl-p-aminophenol] + O
Conditions | binary diffusion coefficient [m2/s]
c1 = 0.001 | 6.63e-10
c1 = 0.003 | 6.59e-10
c1 = 0.005 | 6.54e-10
c1 = 0.01 | 6.5e-10
c1 = 0.03 | 6.29e-10
c1 = 0.05 | 6.21e-10
